In patent US10004701B2, “Methods and compositions for treating infection” (UNIVERSITY OF ROCHESTER, priority 2012, dated 2018):
Where a name gives a salt, the structure may show the parent alone. Read-outs that look alike come from different tables or passages of the source.

Legend:
Assay in all cases: AK assay 384-well format, Prestwick library screening
E. faecium = type: cell-based, Enterococcus faecium; conditions: Enterococcus faecium, 3 h, 50 μM final drug concentration
P. aeruginosa = type: cell-based, Pseudomonas aeruginosa; conditions: Pseudomonas aeruginosa, 3 h, 50 μM final drug concentration
[1] = test system: S. aureus strain USA300-0114; type: cell-based, Staphylococcus aureus; conditions: Staphylococcus aureus, USA300, 3 h, 50 μM final drug concentration
E. coli = type: cell-based, Escherichia coli; conditions: Escherichia coli, 3 h, 50 μM final drug concentration
K. pneumoniae = type: cell-based, Klebsiella pneumoniae; conditions: Klebsiella pneumoniae, 3 h, 50 μM final drug concentration
E. cloacae = type: cell-based, Enterobacter cloacae; conditions: Enterobacter cloacae, 3 h, 50 μM final drug concentration
[2] = test system: A. baumannii strain 98-37-09; type: cell-based, Acinetobacter baumannii; conditions: Acinetobacter baumannii, 983709, 3 h, 50 μM final drug concentration
[3] = planktonic, cutoff for positive-scoring molecules 3-fold increase, read-out: AK-based Prestwick Library Screening Results, E. faecium (fold increase in extracellular AK activity)
[4] = planktonic, cutoff for positive-scoring molecules 3-fold increase, read-out: AK-based Prestwick Library Screening Results, P. aeruginosa (fold increase in extracellular AK activity)
[5] = planktonic, cutoff for positive-scoring molecules 3-fold increase, read-out: AK-based Prestwick Library Screening Results, S. aureus (fold increase in extracellular AK activity)
[6] = planktonic, cutoff for positive-scoring molecules 3-fold increase, read-out: AK-based Prestwick Library Screening Results, E. coli (fold increase in extracellular AK activity)
[7] = planktonic, cutoff for positive-scoring molecules 3-fold increase, read-out: AK-based Prestwick Library Screening Results, K. pneumoniae (fold increase in extracellular AK activity)
[8] = planktonic, cutoff for positive-scoring molecules 3-fold increase, read-out: AK-based Prestwick Library Screening Results, E. cloacae (fold increase in extracellular AK activity)
[9] = planktonic, cutoff for positive-scoring molecules 3-fold increase, read-out: AK-based Prestwick Library Screening Results, A. baumannii (fold increase in extracellular AK activity)
[10] = planktonic E. faecium, […], read-out: AK-based Prestwick Library Screening Results, E. faecium (increase in extracellular AK activity)
[11] = planktonic P. aeruginosa, […], read-out: AK-based Prestwick Library Screening Results, P. aeruginosa (increase in extracellular AK activity)
[12] = planktonic S. aureus, […], read-out: AK-based Prestwick Library Screening Results, S. aureus (increase in extracellular AK activity)
[13] = planktonic E. coli, […], read-out: AK-based Prestwick Library Screening Results, E. coli (increase in extracellular AK activity)
[14] = planktonic K. pneumoniae, […], read-out: AK-based Prestwick Library Screening Results, K. pneumoniae (increase in extracellular AK activity)
[15] = planktonic E. cloacae, […], read-out: AK-based Prestwick Library Screening Results, E. cloacae (increase in extracellular AK activity)
[16] = planktonic A. baumannii, […], read-out: AK-based Prestwick Library Screening Results, A. baumannii (increase in extracellular AK activity)
[17] = planktonic E. faecium, 384-well, cutoff for positive-scoring molecules 3-fold increase, read-out: AK-based Prestwick Library Screening Results: E. faecium (increase in extracellular AK activity)
[18] = planktonic P. aeruginosa, 384-well, cutoff for positive-scoring molecules 3-fold increase, read-out: AK-based Prestwick Library Screening Results: P. aeruginosa (increase in extracellular AK activity)
[19] = planktonic S. aureus, 384-well, cutoff for positive-scoring molecules 3-fold increase, read-out: AK-based Prestwick Library Screening Results: S. aureus (increase in extracellular AK activity)
[20] = planktonic E. coli, 384-well, cutoff for positive-scoring molecules 3-fold increase, read-out: AK-based Prestwick Library Screening Results: E. coli (increase in extracellular AK activity)
[21] = planktonic K. pneumoniae, 384-well, cutoff for positive-scoring molecules 3-fold increase, read-out: AK-based Prestwick Library Screening Results: K. pneumoniae (increase in extracellular AK activity)
[22] = planktonic E. cloacae, 384-well, cutoff for positive-scoring molecules 3-fold increase, read-out: AK-based Prestwick Library Screening Results: E. cloacae (increase in extracellular AK activity)
[23] = planktonic A. baumannii, 384-well, cutoff for positive-scoring molecules 3-fold increase, read-out: AK-based Prestwick Library Screening Results: A. baumannii (increase in extracellular AK activity)

CC/C(=C(/CC)c1ccc(O)cc1)c1ccc(O)cc1 [Diethylstilbestrol]
fold induction at 50 µM (E. faecium; [3]): 1.1 | fold induction at 50 µM (P. aeruginosa; [4]): 0.8 | fold induction at 50 µM [1, 5]: 0.6 | fold induction at 50 µM (E. coli; [6]): 0.9 | fold induction at 50 µM (K. pneumoniae; [7]): 0.7 | fold induction at 50 µM (E. cloacae; [8]): 1.4 | fold induction at 50 µM [2, 9]: 1.8

CC(=O)OCC(=O)[C@@]1(OC(C)=O)[C@@H](C)C[C@H]2[C@@H]3C[C@H](F)C4=CC(=O)C=C[C@]4(C)[C@@]3(F)[C@@H](O)C[C@@]21C [Diflorasone Diacetate]
fold induction at 50 µM (E. faecium; planktonic, cutoff for positive 3-fold increase, read-out: AK-based Prestwick Library Screening Results, E. faecium (fold increase in extracellular AK activity)): 1.1 | fold induction at 50 µM (P. aeruginosa; planktonic, cutoff for positive 3-fold increase, read-out: AK-based Prestwick Library Screening Results, P. aeruginosa (fold increase in extracellular AK activity)): 1 | fold induction at 50 µM ([1]; planktonic, cutoff for positive 3-fold increase, read-out: AK-based Prestwick Library Screening Results, S. aureus (fold increase in extracellular AK activity)): 1.1 | fold induction at 50 µM (E. coli; planktonic, cutoff for positive 3-fold increase, read-out: AK-based Prestwick Library Screening Results, E. coli (fold increase in extracellular AK activity)): 1.1 | fold induction at 50 µM (K. pneumoniae; planktonic, cutoff for positive 3-fold increase, read-out: AK-based Prestwick Library Screening Results, K. pneumoniae (fold increase in extracellular AK activity)): 1 | fold induction at 50 µM (E. cloacae; planktonic, cutoff for positive 3-fold increase, read-out: AK-based Prestwick Library Screening Results, E. cloacae (fold increase in extracellular AK activity)): 1.4 | fold induction at 50 µM ([2]; planktonic, cutoff for positive 3-fold increase, read-out: AK-based Prestwick Library Screening Results, A. baumannii (fold increase in extracellular AK activity)): 0.9

O=C(O)c1cc(-c2ccc(F)cc2F)ccc1O [Diflunisal]
fold induction at 50 µM (E. faecium; 384-well format, […], read-out: AK-based Prestwick Library Screening Results, E. faecium (increase in extracellular AK activity)): 0.9 | fold induction at 50 µM (P. aeruginosa; 384-well format, […], read-out: AK-based Prestwick Library Screening Results, P. aeruginosa (increase in extracellular AK activity)): 0.6 | fold induction at 50 µM ([1]; 384-well format, […], read-out: AK-based Prestwick Library Screening Results, S. aureus (increase in extracellular AK activity)): 0.6 | fold induction at 50 µM (E. coli; 384-well format, […], read-out: AK-based Prestwick Library Screening Results, E. coli (increase in extracellular AK activity)): 0.7 | fold induction at 50 µM (K. pneumoniae; 384-well format, […], read-out: AK-based Prestwick Library Screening Results, K. pneumoniae (increase in extracellular AK activity)): 0.6 | fold induction at 50 µM (E. cloacae; 384-well format, […], read-out: AK-based Prestwick Library Screening Results, E. cloacae (increase in extracellular AK activity)): 1.2 | fold induction at 50 µM ([2]; 384-well format, […], read-out: AK-based Prestwick Library Screening Results, A. baumannii (increase in extracellular AK activity)): 0.7

C[C@]12CC[C@H](O)C[C@H]1CC[C@@H]1[C@@H]2CC[C@]2(C)[C@@H](C3=CC(=O)OC3)CC[C@]12O [Digitoxigenin]
fold induction at 50 µM (E. faecium; [10]): 0.9 | fold induction at 50 µM (P. aeruginosa; [11]): 0.8 | fold induction at 50 µM [1, 12]: 0.6 | fold induction at 50 µM (E. coli; [13]): 0.9 | fold induction at 50 µM (K. pneumoniae; [14]): 0.7 | fold induction at 50 µM (E. cloacae; [15]): 1.2 | fold induction at 50 µM [2, 16]: 0.8

C[C@]12CC[C@H](O)C[C@H]1CC[C@@H]1[C@@H]2C[C@@H](O)[C@]2(C)[C@@H](C3=CC(=O)OC3)CC[C@]12O [Digoxigenin]
fold induction at 50 µM (E. faecium; [3]): 0.8 | fold induction at 50 µM (P. aeruginosa; [4]): 0.5 | fold induction at 50 µM [1, 5]: 0.6 | fold induction at 50 µM (E. coli; [6]): 0.7 | fold induction at 50 µM (K. pneumoniae; [7]): 0.6 | fold induction at 50 µM (E. cloacae; [8]): 0.7 | fold induction at 50 µM [2, 9]: 0.6

C[C@H]1O[C@@H](O[C@H]2[C@@H](O)C[C@H](O[C@H]3[C@@H](O)C[C@H](O[C@H]4CC[C@@]5(C)[C@H](CC[C@@H]6[C@@H]5C[C@@H](O)[C@]5(C)[C@@H](C7=CC(=O)OC7)CC[C@]65O)C4)O[C@@H]3C)O[C@@H]2C)C[C@H](O)[C@@H]1O [Digoxin]
fold induction at 50 µM (E. faecium; [10]): 0.9 | fold induction at 50 µM (P. aeruginosa; [11]): 0.8 | fold induction at 50 µM [1, 12]: 0.8 | fold induction at 50 µM (E. coli; [13]): 0.8 | fold induction at 50 µM (K. pneumoniae; [14]): 0.7 | fold induction at 50 µM (E. cloacae; [15]): 1.2 | fold induction at 50 µM [2, 16]: 0.9

CC(C)[C@@]1(NC(=O)[C@@H]2C[C@@H]3c4cccc5[nH]cc(c45)C[C@H]3N(C)C2)O[C@@]2(O)[C@@H]3CCCN3C(=O)[C@H](Cc3ccccc3)N2C1=O [Dihydroergocristine mesylate]
fold induction at 50 µM (E. faecium; [17]): 0.9 | fold induction at 50 µM (P. aeruginosa; [18]): 0.6 | fold induction at 50 µM [1, 19]: 0.5 | fold induction at 50 µM (E. coli; [20]): 0.7 | fold induction at 50 µM (K. pneumoniae; [21]): 0.6 | fold induction at 50 µM (E. cloacae; [22]): 0.6 | fold induction at 50 µM [2, 23]: 0.7

CN[C@@H]1[C@H](O[C@H]2[C@H](O[C@H]3[C@H](O)[C@@H](O)[C@H](NC(=N)N)[C@@H](O)[C@@H]3NC(=N)N)O[C@@H](C)[C@]2(O)CO)O[C@@H](CO)[C@H](O)[C@H]1O [Dihydrostreptomycin sulfate]
fold induction at 50 µM (E. faecium; [17]): 1 | fold induction at 50 µM (P. aeruginosa; [18]): 0.9 | fold induction at 50 µM [1, 19]: 1.2 | fold induction at 50 µM (E. coli; [20]): 1.2 | fold induction at 50 µM (K. pneumoniae; [21]): 0.7 | fold induction at 50 µM (E. cloacae; [22]): 1.3 | fold induction at 50 µM [2, 23]: 1.2

COc1cc(C(=O)OCCCN2CCCN(CCCOC(=O)c3cc(OC)c(OC)c(OC)c3)CC2)cc(OC)c1OC [Dilazep dihydrochloride]
fold induction at 50 µM (E. faecium; [17]): 1.1 | fold induction at 50 µM (P. aeruginosa; [18]): 1.3 | fold induction at 50 µM [1, 19]: 1.2 | fold induction at 50 µM (E. coli; [20]): 1.5 | fold induction at 50 µM (K. pneumoniae; [21]): 1.4 | fold induction at 50 µM (E. cloacae; [22]): 1.1 | fold induction at 50 µM [2, 23]: 1.4

CN(C(=O)C(Cl)Cl)c1ccc(OC(=O)c2ccco2)cc1 [Diloxanide furoate]
fold induction at 50 µM (E. faecium; [3]): 0.8 | fold induction at 50 µM (P. aeruginosa; [4]): 1 | fold induction at 50 µM [1, 5]: 0.7 | fold induction at 50 µM (E. coli; [6]): 1 | fold induction at 50 µM (K. pneumoniae; [7]): 0.7 | fold induction at 50 µM (E. cloacae; [8]): 1.2 | fold induction at 50 µM [2, 9]: 0.9

COc1ccc([C@@H]2Sc3ccccc3N(CCN(C)C)C(=O)[C@@H]2OC(C)=O)cc1 [Diltiazem hydrochloride]
fold induction at 50 µM (E. faecium; [17]): 0.9 | fold induction at 50 µM (P. aeruginosa; [18]): 0.9 | fold induction at 50 µM [1, 19]: 0.8 | fold induction at 50 µM (E. coli; [20]): 1 | fold induction at 50 µM (K. pneumoniae; [21]): 1 | fold induction at 50 µM (E. cloacae; [22]): 1.5 | fold induction at 50 µM [2, 23]: 1
